Measurements taken from patent US20240124528A1, “ANTAGONIST OF INTERLEUKIN-17B RECEPTOR (IL-17RB) AND USE THEREOF” (Academia Sinica, priority 2020, published 2024).

What was measured:
[1] = test system: pancreatic cancer cells expressing IL-17RB; experiment: Soft agar colony formation (SACF) assay after peptide treatment; type: cell-based, human; conditions: CFPAC1 and PDX-derived cells treated with peptide
Excerpt: FIGS. 7A to 7J include charts showing that disruption of the interaction between IL-17RB and MLK4 by the loop peptide blocks oncogenic progression. (FIG. 7A) Peptides TAT48-57 (Control) (SEQ ID NO: 21) and TAT-IL-17RB403-416 (Loop) (SEQ ID NO: 30) used for the following experiments. (FIG. 7B) Immunoblotting analysis of IL-17RB binding to MLK4 with Loop peptide treatment. 293T cells expressing Flag-MLK4 and HA-IL-17RB were pretreated with the control and loop peptides with different dose (0, 0.1, 1, 10, 50, 100 ng/ml) for 30 mins, and then added rIL-17B for 30 mins. […] CCL20 and TFF/mRNA expression of these cells were measured by RT-qPCR (n=3) (FIG. 7D), the same cells were for invasion assay (n=4) (FIG. 7E) and SACF assay (n=4) (FIG. 7F). […] (FIG. 7I) The experimental EKP mice (n=7 for each group) were euthanized at Day 56, and the metastatic tumor nodules in the lungs were counted. […]
FIGS. 19A to 19D include charts showing that treatment with the loop peptide suppresses aggressive behavior of patient-derived pancreatic tumor cells. […] (FIG. 19C and FIG. 19D) These cells were measured by RT-qPCR for the cytokine gene mRNA expression (n=3), or for Invasion assay (n=4) (FIG. 19C) and SACF assay (n=4) (FIG. 19D). […]
Soft agar colony formation assay was performed as described (7). […] Crystal violet-stained colonies greater than 50 μm in size were counted and analyzed objectively by light microscopy.

CFPAC1-GFP/Luc cells = experiment: Orthotopic CFPAC1-GFP/Luc xenograft pancreatic cancer model in NOD-SCID mice; type: in vivo, mouse
[2] = test system: peripheral blood mononuclear cells (PBMCs); experiment: IL-17E-induced IL-4 and IL-13 mRNA expression in PBMCs (RT-qPCR); type: cell-based; conditions: peptide pretreatment
Procedure: (FIG. 24A) Flow chart describing the experimental design for testing the effects of anti-IL-17RB antibody and loop peptide on IL-17E-induced expression of IL-4 and IL-13 in peripheral blood mononuclear cells (PBMCs). PBMCs were purified by Ficoll-paque and used for the following experiments. (FIG. 24B to FIG. 24E) IL-4 and IL-13 expression induced by IL-17B or IL-17E in the PBMCs was determined by RT-qPCR after mIgG or anti-IL-17RB antibody pretreatment (FIG. 24B and FIG. 24C) and control or loop peptide pretreatment (FIG. 24D and FIG. 24E), respectively. (FIG. 24F and FIG. 24G) The DCs derived from mouse bone marrow were treated with the control or loop peptides, separately. (FIG. 24F) Flow cytometry analysis using anti-CD80, CD86 and MHC-II antibodies was performed to determine the activity of the DCs after incubation with the control or loop peptides for 48 hrs. (FIG. 24G) The activities of DCs were quantified by gating the area of the CD80, CD86 and MHC-II-positive cells (n=3). Data are mean±s.d.

[3] = NOD-SCID mice, peptide 160 μg/100 μl PBS i.p. twice per week

RKKRRQRRRVCDGTCGKSEGSPS (IL-17RB inhibitory peptide, fusion protein) [loop peptide]
colony formation ability (SACF) [1]: diminished
distant metastases of the pancreatic tumors to liver and lung (IVIS) (CFPAC1-GFP/Luc cells; NOD-SCID mice euthanized at Day 34): significantly suppressed
expression of phospho-IL-17RB in the pancreatic tumors (IHC) (CFPAC1-GFP/Luc cells; [3]): inhibited
lifespan (Kaplan-Meier survival analysis) (CFPAC1-GFP/Luc cells; [3]): prolonged
tumor growth (IVIS bioluminescence) (CFPAC1-GFP/Luc cells; [3]): significantly impeded
pancreatic tumor progression (CFPAC1-GFP/Luc cells; orthotopic xenograft, NOD-SCID mice): suppresses
IL-17E-induced IL-4 and IL-13 mRNA expression [2]: does not suppress
